Experimental data reported in ChEMBL document CHEMBL5096149, “Recent Update on Targeting c-MYC G-Quadruplexes by Small Molecules for Anticancer Therapeutics” (J Med Chem, 2021).
pIC50: −log10 of the molar value.

Legend:
Quadruplex DNA [1] = test: Thermal stabilization of c-MYC G-quadruplex DNA (unknown origin) assessed as change in melting temperature at 1:5 ratio by FRET melting assay; assay type: nucleic-acid assay
Quadruplex DNA [2] = test: Binding affinity to c-MYC G-quadruplex DNA (unknown origin) assessed as association constant by fluorescence spectroscopy; assay type: nucleic-acid assay
HT-1080 = test: Antiproliferative activity against human HT-1080 cells assessed as inhibition of cell growth by celltiter-glo luminescent cell viability assay; assay type: functional, cell-based
[3] = Cytotoxicity against human HEK cells assessed as inhibition of cell viability incubated for 48 hrs by MTT assay; assay type: functional, cell-based; conditions: HEK293, 48 h
Quadruplex DNA [4] = test: Binding affinity to human c-MYC G-quadruplex (Pu24T) DNA assessed as first order binding constant by isothermal titration calorimetry method; assay type: nucleic-acid assay
Quadruplex DNA [5] = test: Binding affinity to human c-MYC G-quadruplex (Pu24T) DNA assessed as second order binding constant by fluorescence spectroscopy; assay type: nucleic-acid assay
Quadruplex DNA [6] = test: Thermal stabilization of human c-MYC G-quadruplex (Pu24T) DNA assessed as change in melting temperature at 1:2 ratio by circular dichroism spectroscopy; assay type: nucleic-acid assay
Quadruplex DNA [7] = test: Binding affinity to human c-MYC G-quadruplex (Pu24T) DNA assessed as first order binding constant by fluorescence spectroscopy; assay type: nucleic-acid assay
HeLa [8] = test: Cytotoxicity against human HeLa cells assessed as inhibition of cell viability incubated for 48 hrs by MTT assay; assay type: functional, cell-based
Quadruplex DNA [9] = test: Binding affinity to human c-MYC G-quadruplex (Pu24T) DNA assessed as second order binding constant by isothermal titration calorimetry method; assay type: nucleic-acid assay
A549 = test: Antiproliferative activity against human A549 cells assessed as inhibition of cell growth by XTT assay; assay type: functional, cell-based
[10] = Antiproliferative activity against human Kidney epithelial cells assessed as inhibition of cell growth by XTT assay; assay type: toxicity, cell-based
Quadruplex DNA [11] = test: Binding affinity to c-MYC G-quadruplex DNA (unknown origin) assessed as association rate constant by isothermal titration calorimetry method; assay type: nucleic-acid assay
HeLa [12] = test: Antiproliferative activity against human HeLa cells assessed as inhibition of cell growth by XTT assay; assay type: functional, cell-based
MCF7 = test: Antiproliferative activity against human MCF7 cells assessed as inhibition of cell growth by XTT assay; assay type: functional, cell-based

CN(C)c1cccc2c(S(=O)(=O)N(Cc3cn(C(C)(C)C(=O)OC[C@H]4O[C@@H](n5cnc6c(=O)[nH]c(N)nc65)[C@@H]5OC(C)(C)O[C@@H]54)nn3)Cc3cn(C(C)(C)C(=O)OC[C@H]4O[C@@H](n5cnc6c(=O)[nH]c(N)nc65)[C@@H]5OC(C)(C)O[C@@H]54)nn3)cccc12
ΔTm (Quadruplex DNA [1]): 12.6 °C
Ka (Quadruplex DNA [2]): 4.8 10^7/M
pIC50 (HT-1080): 4.72

O=c1c(O)c(-c2ccc(O)c(O)c2)oc2cc(O)cc(O)c12 [QUERCETIN]
pIC50 [3]: 6.92
K (Quadruplex DNA [4]): 1.57 10^7/M
K (Quadruplex DNA [5]): 1.2 10^5/M
ΔTm (Quadruplex DNA [6]): 10.3 °C
K (Quadruplex DNA [7]): 0.72 10^7/M
pIC50 (HeLa [8]): 5.40
K (Quadruplex DNA [9]): 8.5 10^5/M

CN(C)CCCOc1cc(C(=O)NCc2cn(-c3cccc(NC(=O)C4CCCN4)c3)nn2)cc(C(=O)NCc2cn(-c3cccc(NC(=O)C4CCCN4)c3)nn2)c1 (configuration not stated)
pIC50 (A549): 5.04
pIC50 [10]: < 4.30
ΔTm (Quadruplex DNA [1]): 15 °C
Ka (Quadruplex DNA [11]): 7 10^5/M
pIC50 (HeLa [12]): 5.08
pIC50 (MCF7): 5.42
Ka (Quadruplex DNA [2]): 5.55 10^5/M
